Read-outs that look alike come from different tables or passages of the source. Marks after values point to notes of the source that are not given here.
Key:
healthy volunteers = assay: Food effect cross-over study, healthy volunteers: safety; format: in vivo, human
Protocol: ECG was performed as described in Example 1. The following intervals were measured: RR, PR, QRS, and QT. Heart rate (HR) was calculated as 60/(RR×1000) (with RR expressed in msec) and rounded to the nearest integer. Each individual ECG QT value was corrected for HR. The measured QT data was corrected for HR using the Fridericia method (QTcF) as per the following formulae/method (with QT, RR and QTc expressed in ms): […]
The Investigator or designee monitored the continuous ECG telemetry data and correlated the finding(s) with any other clinical findings, study participant's medical history, study participant's clinical status and laboratory data to determine the clinical importance of the finding.
Serum troponin-I concentrations were determined as described in Example 1. Abnormal and/or rising troponin values (as per Investigator's judgment and taking into account potential Baseline troponin elevation) led to the subject being clinically evaluated for possible myocardial ischemia. […] The entire clinical context would be evaluated (e.g., signs, symptoms, new ECG changes, new troponin, and CK-MB abnormalities) and correlated with any other relevant clinical findings, the subject's medical history, and laboratory data to determine the clinical significance of the findings.

[1] = system: patients with stable HFrEF; assay: HFrEF study Part 2 (MAD Cohorts A-D): TTE pharmacodynamics by plasma concentration group; format: in vivo, human; conditions: for A-wave duration, mean change from baseline (placebo-corrected) / A-wave peak, mean change from baseline (placebo-corrected) / DBP (supine), mean change from baseline (placebo-corrected) / E-wave peak, mean change from baseline (placebo-corrected) / E/A ratio, mean change from baseline (placebo-corrected) / E/e′ (lateral), mean change from baseline (placebo-corrected) / Heart rate (supine), mean change from baseline (placebo-corrected) / IVRT, mean change from baseline (placebo-corrected) / LVEDD, mean change from baseline (placebo-corrected) / LVEDVi, mean change from baseline (placebo-corrected) / LVEF, mean change from baseline (placebo-corrected) / LVESD, mean change from baseline (placebo-corrected) / LVESVi, mean change from baseline (placebo-corrected) / LVFS, mean change from baseline (placebo-corrected) / LVGCS, mean change from baseline (placebo-corrected) / LVGLS, mean change from baseline (placebo-corrected) / LVSV, mean change from baseline (placebo-corrected) / SBP (supine), mean change from baseline (placebo-corrected) / SET, mean change from baseline (placebo-corrected) / Tei index, mean change from baseline (placebo-corrected) / e′ (lateral), mean change from baseline (placebo-corrected) / s′ (lateral), mean change from baseline (placebo-corrected): LS mean difference vs placebo
Protocol: PD assessment was done by transthoracic echocardiography as described in Example 1 above. TTE evaluations of LVSV (derived from LVOT-VTI), LVEF, LVFS, SET, and other parameters were PD assessments at predetermined time points. The patients were on bed rest for 10 minutes before the TTEs were obtained. In Part 2 (MAD), TTEs were usually obtained before the morning close and/or at 7 hours postclose (i.e., close to the anticipated peak effect based on the PK profile from the healthy volunteer studies).
The pharmacodynamic effects of Compound I on echocardiographic markers of cardiac structure and function were analyzed by Compound I plasma concentration groups: <2000 ng/mL (lower concentration group), 2000-3500 ng/mL (medium concentration group) and ≥3500 ng/mL (higher concentration group) (Table 16) and with PK-PD scatterplots (FIGS. 9A-9C). The medium concentration group corresponds to steady-state plasma concentrations achieved with 50 mg BID (Table 17). A total of 526 echocardiograms were performed from which the PK-PD analysis was derived.

[2] = Pharmacokinetics in beagle dogs (single doses); format: in vivo
Protocol: The pharmacokinetics of Compound I have been evaluated in multiple dog studies. […] At a single dose<3 mg/kg, the observed oral bioavailability was approximately 100%. This nonlinear pharmacokinetics of Compound I was also observed in humans. […] In order to delineate the underlying mechanism responsible for the nonlinear pharmacokinetics, physiologically-based absorption models of Compound I for beagle dogs and healthy volunteers were developed and used to assess the effect of particle size on the in vivo dissolution, absorption, bioavailability, and systemic exposure of Compound I.
Data used for Compound I physiologically-based pharmacokinetic (PBPK) model development and verification were obtained from in vivo nonclinical studies in dogs (FIG. 13), a clinical study in healthy volunteers (Example 1), and in vitro experiments (Table 20).

[3] = MAD cohorts, plasma concentration group 2000-<3500 ng/mL (n = 26)
[4] = MAD cohorts, plasma concentration group <2000 ng/mL (n = 30)
[5] = MAD cohorts, plasma concentration group ≥3500 ng/mL (n = 13)
[6] = higher concentration group (≥3500 ng/mL)
[7] = medium concentration group (2000-3500 ng/mL)

Cn1cc(S(=O)(=O)[C@@](C)(F)C2CCN(C(=O)Nc3ccon3)CC2)c(C(F)F)n1 [Compound I, (R)-4-(1-((3-(difluoromethyl)-1-methyl-1H-pyrazol-4-yl)sulfonyl)-1-fluoroethyl)-N-(isoxazol-3-yl)piperidine-1-carboxamide]
troponin-I (healthy volunteers; 200 mg, fasted or fed state): No increase | abnormal ECG results (healthy volunteers; 200 mg, fasted state): 3 (30.0%) | headache (healthy volunteers; 200 mg, fasted state): 4 subjects | abnormal ECG results (healthy volunteers; 200 mg, fed state): 2 (20.0%) | headache (healthy volunteers; 200 mg, fed state): 1 subject | tolerability (healthy volunteers; single dose of 200 mg): well-tolerated | LVEF ([1]; MAD cohorts): non-significant increase | A-wave duration, mean change from baseline (placebo-corrected) [1, 3]: 5.9 ms | A-wave peak, mean change from baseline (placebo-corrected) [1, 3]: 6.1** cm/s | DBP (supine), mean change from baseline (placebo-corrected) [1, 3]: −0.2 mmHg | E-wave peak, mean change from baseline (placebo-corrected) [1, 3]: -2.1 cm/s | E/A ratio, mean change from baseline (placebo-corrected) [1, 3]: −0.1** | E/e′ (lateral), mean change from baseline (placebo-corrected) [1, 3]: −0.7 | Heart rate (supine), mean change from baseline (placebo-corrected) [1, 3]: −2.0 bpm | IVRT, mean change from baseline (placebo-corrected) [1, 3]: 10.5 ms | LVEDD, mean change from baseline (placebo-corrected) [1, 3]: −0.9** mm | LVEDVi, mean change from baseline (placebo-corrected) [1, 3]: −1.1 mL/m^2 | LVEF, mean change from baseline (placebo-corrected) [1, 3]: 1.1% | LVESD, mean change from baseline (placebo-corrected) [1, 3]: −1.3** mm | LVESVi, mean change from baseline (placebo-corrected) [1, 3]: −1.3 mL/m^2 | LVFS, mean change from baseline (placebo-corrected) [1, 3]: 0.8% | LVGCS, mean change from baseline (placebo-corrected) [1, 3]: −2.1** % | LVGLS, mean change from baseline (placebo-corrected) [1, 3]: −0.9* % | LVSV, mean change from baseline (placebo-corrected) [1, 3]: 7.8** mL | SBP (supine), mean change from baseline (placebo-corrected) [1, 3]: −0.8 mmHg | SET, mean change from baseline (placebo-corrected) [1, 3]: 36** ms | Tei index, mean change from baseline (placebo-corrected) [1, 3]: −0.08** | e′ (lateral), mean change from baseline (placebo-corrected) [1, 3]: 0.1 | s′ (lateral), mean change from baseline (placebo-corrected) [1, 3]: 0.6** | A-wave duration, mean change from baseline (placebo-corrected) [1, 4]: 6.0 ms | A-wave peak, mean change from baseline (placebo-corrected) [1, 4]: 4.1* cm/s | DBP (supine), mean change from baseline (placebo-corrected) [1, 4]: −0.9 mmHg | E-wave peak, mean change from baseline (placebo-corrected) [1, 4]: -3.8 cm/s | E/A ratio, mean change from baseline (placebo-corrected) [1, 4]: −0.1** | E/e′ (lateral), mean change from baseline (placebo-corrected) [1, 4]: −0.8 | Heart rate (supine), mean change from baseline (placebo-corrected) [1, 4]: 0.0 bpm | IVRT, mean change from baseline (placebo-corrected) [1, 4]: 2.7 ms | LVEDD, mean change from baseline (placebo-corrected) [1, 4]: −0.5 mm | LVEDVi, mean change from baseline (placebo-corrected) [1, 4]: −1.1 mL/m^2 | LVEF, mean change from baseline (placebo-corrected) [1, 4]: −0.3% | LVESD, mean change from baseline (placebo-corrected) [1, 4]: −0.8 mm | LVESVi, mean change from baseline (placebo-corrected) [1, 4]: −0.9 mL/m^2 | LVFS, mean change from baseline (placebo-corrected) [1, 4]: 0.5% | LVGCS, mean change from baseline (placebo-corrected) [1, 4]: −0.4% | LVGLS, mean change from baseline (placebo-corrected) [1, 4]: −0.3% | LVSV, mean change from baseline (placebo-corrected) [1, 4]: 3.1 mL | SBP (supine), mean change from baseline (placebo-corrected) [1, 4]: −1.5 mmHg | SET, mean change from baseline (placebo-corrected) [1, 4]: 15** ms | Tei index, mean change from baseline (placebo-corrected) [1, 4]: −0.05 | e′ (lateral), mean change from baseline (placebo-corrected) [1, 4]: −0.2 | s′ (lateral), mean change from baseline (placebo-corrected) [1, 4]: 0.2 | A-wave duration, mean change from baseline (placebo-corrected) [1, 5]: 11.9** msec | A-wave peak, mean change from baseline (placebo-corrected) [1, 5]: 4.3 cm/s | DBP (supine), mean change from baseline (placebo-corrected) [1, 5]: −1.4 mmHg | E-wave peak, mean change from baseline (placebo-corrected) [1, 5]: −10** cm/s | E/A ratio, mean change from baseline (placebo-corrected) [1, 5]: −0.2** | E/e′ (lateral), mean change from baseline (placebo-corrected) [1, 5]: 0.3 | Heart rate (supine), mean change from baseline (placebo-corrected) [1, 5]: −1.1 bpm | IVRT, mean change from baseline (placebo-corrected) [1, 5]: 27.8** msec | LVEDD, mean change from baseline (placebo-corrected) [1, 5]: −1.8** mm | LVEDVi, mean change from baseline (placebo-corrected) [1, 5]: −5.2* mL/m^2 | LVEF, mean change from baseline (placebo-corrected) [1, 5]: 2.3% | LVESD, mean change from baseline (placebo-corrected) [1, 5]: −1.8** mm | LVESVi, mean change from baseline (placebo-corrected) [1, 5]: −4.6** mL/m^2 | LVFS, mean change from baseline (placebo-corrected) [1, 5]: 0.5% | LVGCS, mean change from baseline (placebo-corrected) [1, 5]: −3.3** % | LVGLS, mean change from baseline (placebo-corrected) [1, 5]: −1.0* % | LVSV, mean change from baseline (placebo-corrected) [1, 5]: 5.7* mL | SBP (supine), mean change from baseline (placebo-corrected) [1, 5]: −5.2* mmHg | SET, mean change from baseline (placebo-corrected) [1, 5]: 48** ms | Tei index, mean change from baseline (placebo-corrected) [1, 5]: −0.02 | e′ (lateral), mean change from baseline (placebo-corrected) [1, 5]: −1.0** | s′ (lateral), mean change from baseline (placebo-corrected) [1, 5]: 0.3 | SET increase ([1]; SAD and MAD cohorts): < 50 ms | increase in SV (forward flow) ([1]; SAD and MAD cohorts, exposure-related): 8 to 9 mL | Myocardial performance (Tei index) improved ([1]; SAD and MAD cohorts, concentrations ≥2000 ng/mL): approximately 10% | LV longitudinal as well as circumferential strain, mean placebo-corrected decrease [1, 6]: −3.3% | LVESD, mean placebo-corrected decrease [1, 6]: −1.8 mm | SET, mean placebo-corrected increase [1, 6]: 48 ms | peak E wave, decrease [1, 6]: -10 cm/s | stroke volume, mean placebo-corrected increase [1, 6]: 5.7 mL | LV longitudinal as well as circumferential strain, mean placebo-corrected decrease [1, 7]: −2.1% | LVESD, mean placebo-corrected decrease [1, 7]: −1.3 mm | SET, mean placebo-corrected increase [1, 7]: 36 ms | stroke volume, mean placebo-corrected increase [1, 7]: 7.8 mL | filling pressures (E/e′) ([1]; medium or higher concentration group): No change | bioavailability ([2]; beagle, dog, plasma, po, single dose <3 mg/kg, read-out: oral bioavailability): ~100% | bioavailability ([2]; beagle, dog, plasma, oral 10 mg/kg, micronized (Dv50=3.2 μm), read-out: bioavailability): > 100% | bioavailability ([2]; beagle, dog, plasma, oral 100 mg, Dv50=46 μm, read-out: bioavailability): ~40% | Vd ([2]; beagle, plasma, 1-compartmental model analysis of in vivo data in dog): 1.51 L/kg | clearance ([2]; beagle, plasma, 1-compartmental model analysis of in vivo data in dog, read-out: CL (Dog) (converted)): 1.58 mL/min/kg | bioavailability ([2]; single oral dose 25 mg (3 mg/kg) or lower, regardless of particle size): approximately 100%
